From patent publication US8592421B2, “Cyclic bioisosters of purine system derivatives and a pharmaceutical composition based thereon” (priority 2003, dated 2013)

Legend:
[1] = Electrochemical activity: polarographic reduction on mercury dripping electrode; type: physicochemical; details: for i: 2.0% sodium chloride background, 9·10^−4 M; for i / −E1/2: 37° C., forward trace, average for the group of compounds; for −E1/2: vs SCE
thrombocytes = assay: ADP-induced aggregation of thrombocytes in vitro (Born method, plasma enriched with thrombocytes); type: cell-based, rabbit; details: 3-minute incubation, ADP 10^−5 M
Description: The aggregation of thrombocytes was studied by the Born method based on determination of the changes in the optical density of plasma enriched with thrombocytes after its incubation with an aggregation inductor.
Adenozinediphosphoric acid (ADP) was selected as an aggregation inductor, which in fact is an aggregation generator. Use was made of a sample (registration number 885) of the Sigma Diagnostics Company (USA) in final concentration of 10^−5 M.
The experiments were carried out on male rabbits of the “Chinchilla” breed having a mass of 2.7±0.3 kg. 18-24 hours prior to the experiment they were deprived of feed while preserving free access to water.
To obtain plasma enriched with thrombocytes, blood was taken from a cut of a marginal vein of the rabbit ear, the sample was stabilized with 3.8% of sodium citrate solution in a ratio of 9:1 and centrifuged at 200 g (1000 rev/min) for 10 minutes. The top supernatant layer enriched with thrombocytes was transferred by an automatic dropper into a silicone test tube and kept at 37° C. The plasma enriched with thrombocytes contained, on the average, […]. If this content exceeded the specified 3×10^8 blood platelets in 1 liter, this sample was diluted to the necessary concentration with plasma deprived of thrombocytes, which was obtained by centrifuging blood at 650 g during 10 minutes.
The measurements of the optical density of the samples were made on two-channel aggregometer of the “Chronolog” Company (USA). A flask containing 490 mkl of plasma rich with thrombocytes was placed in a device, into which a magnetic agitator covered with Teflon was lowered. The index of maximum amplitude of aggregation (MA) in percent of a fall of the plasma optical density under effect of the aggregation inductor was recorded. The control index MA of plasma was compared with the MA of plasma incubated for 3 minutes with different concentrations of the compounds: from 10^−3 to 10^−7 in vitro experiments or with plasma obtained 15, 30, 60 and 120 minutes after intravenous administration of different doses of the compounds in vivo experiments.
The process of aggregation of thrombocytes was recorded with the help of a computer; on the monitor screen the there were depicted curves reflecting changes of the optical density of the plasma enriched which was taken as a standard 100% compared to the optical density of the non-thrombocyte plasma taken for 0% content of thrombocytes.
Under in vitro conditions a flask was filled with blood plasma enriched with thrombocytes, to which an aggregation inductor ADP was added at a concentration of 10^−5 M, incubated for 3 minutes, and then the compounds according to the invention were introduced directly into the flask. Their action by aggregation of thrombocytes was studied after 3-minute incubation in a wide range of concentrations from 10^−3 to 10^−7 M to minimum concentration of 10^−7M not inducing no effect of suppressing the aggregation.

[2] = system: synthase of nitrogen oxide (NOC); assay: Morphine abstinence model: activity of synthase of nitrogen oxide (NOC), radiometric [3H]L-citrulline method; type: in vivo, rats Wistar; details: morphinized rats (FIG. 13)
[3] = system: Ca^2+-independent isoform NOC; assay: Morphine abstinence model: calcium-independent NOC in liver; type: in vivo, rats Wistar; details: administration of morphine (FIG. 13)
[4] = system: Ca^2+-dependent isoform NOC; assay: Morphine abstinence model: calcium-dependent NOC in liver; type: in vivo, rats Wistar; details: administration of morphine (FIG. 13)
[5] = Morphine abstinence model: thymus condition (mass, nitrites); type: in vivo, rats; details: Administration of morphine; control 230 ± 14
Excerpt: The spectrometric method is based the reaction of nitrites with the Griss reagent (a mixture of 2% solution of sulfanilamide and 0.2% N-(1-naphthyl)ethylene diamine. At the first step the nitrite reacts with sulfanilamide with formation of diazonium salt, and then with the second component to form azo dye with an adsorption maximum at 540 nm. For reduction of nitrates into nitrites, a fermentative method was used with bacterial reductase nitrate (Grisham M. B. et al., 1995). The samples of plasma and supernathant of the liver deproteinizated at 100° C. for 5 minutes incubated for 30 minutes at 37° C. in 50.0 mM of HEPES pH 7.4 in the presence of 0.2 unit/ml of Aspergillus reductase nitrate, 5.0 mkM of FAD and 0.1 mM of NAD-Ph. At the end of the reaction lactate dehydrogenase and pyruvate were added for isolation of NAD-Ph interfering with the Griss reaction. Then the Griss reagent was added and after 10-minute incubation the light absorption of the samples was measured at 540 nm. To amount of NOX^− was calculated using sodium nitrate as a standard.
The effect of the compounds according to the invention on the condition of the thymus of the rats was also investigated: a control group, an experimental group of morphinized animals and an experimental group of animals were first morphinized and then injected with the compounds according to the invention. The experiment was carried out similarly to that described above.

[6] = system: embryonic fibroblasts of mouse NIH-3T3; assay: Effect on endocellular pHi of fibroblasts (microspectrofluorimetry with FDA / BCECF-AM); type: cell-based; details: 10 mkM in medium with serum
Description: The effect of the compounds according to the invention on the endocellular pH, embryonic fibroblasts of mouse NIH-3T3 supplied by the All-Russian Collection of Cellular Cultures of the Institute of Cytology of the Russian Academy of Sciences St. Petersburg was investigated. The cells were grown in the DMEM (Sigma) medium containing 2.2 g/l of sodium bicarbonate with addition of 80.0 mkg/ml of gentamicin and 10.0% embryonal veal serum at a temperature of 37° C. in an atmosphere containing 5.0% of carbon dioxide. For these experiments use was also made of a medium buffer with 5.0 mM of HEPES and 15.0 mM of sodium bicarbonate without serum or with addition of 5.0% serum. The cells were calculated with the help of a hemocytometer. A share of the dead cells was determined by colouring trypan blue.
The measurements of the endocellular pHi were carried out with the help of colorants FDA (Sigma) and BCECF-AM (Calbiochem) on a microspectrofluorimeter by a standard technique (Koshevoy Yu. V., Akatov V. S., Grobova M. E. Microspectrofluorimeter for measuring endocellular pH (micro pH)”. Devices and equipment for studies in the field of physical-and-chemical biology and biotechnology. Pushchino, 1990. P. 8-14).
The cells at a temperature of 37° C. were colored within 5 minutes with 5.0 mkM PDA that before the colouring was prepared from a 10.0 mM solution in acetone by dilution for 30 minutes in a phosphatic buffer to 0.1 mM or 2.0 mkM 1.0 mM solution BCECF-AM in DMSO.
The two-wave method of determining pHi was used based on the ratio intensities of fluorescence of the cells on two wavelengths (Akatov V. S. et all), “Endocellular pH and substrate dependence of proliferation of fibroblasts of Chinese hamster, Cytology, 1991, 33 (7), p. 86-94). The fluorescence was excited by light at λ=490 nm, the emission was recorded simultaneously with two photomultipliers on wavelengths λ=535 nm and λ=570 nm. The K-ratio of the fluorescence on two wavelengths was determined with a deduction of the background fluorescence of the medium near the investigated cells for 40-60 individual cells, which are then averaged taking into account the measurement error. A thermostatically controlled table was used that allowed measurements to be conducted at a temperature of 37° C. An account was taken for the photodynamic damage of the pigmented cells during long-time continuous illumination by excited light. The readings were taken from a section of the preparation exposed to light for not more than 5 minutes.
The calibration curves for determining the absolute pHi values by magnitude K were constructed using the Thomas technique (Thomas J. A., Bushbaum R. N., Zimniak A. w Racker E. “Intracellular pH measurements in Ehrlich ascites tumor cells utilizing spectroscopic probe generated in situ”, Biochemistry, 1979, v. 18, p. 2210-2218), for which case the pigmented cells treated for 5-10 minutes with carboxyacidic nigericyn (Calbiochem) at a concentration of 5-10 mkg/ml was placed in a solution with a high content of potassium—130 mM KCl, 1.0 mM MgCl2, 20.0 mM of HEPES) and with pH values from 6.2 to 7.6. The K values were measured in the media with different pH assuming that pHi of the cells equals to the pH of the medium due to the action of nigericyn, which exchanges potassium ions for protons and at a high content of potassium in the medium counterbalances the pH of the medium and cells. Calibration curves were used based on the fluorescence of same medium with addition of 5.0 mkM of fluorescence or BCECF were used to the control the stability of the of the instrument readings.
The cells were colored by pigment BCECF-AM and pHi was measured 10 minutes after incubation in the medium with an appropriate pH value. […]

[7] = system: embryonic fibroblasts of mouse NIH-3T3; details: cells of mice NSO and NIH-3T3, 1-5 mkM, within 15-20 minutes; cited from earlier work

Nc1cccc2c(=O)n([C@@H]3O[C@H](CO)[C@@H](O)[C@H]3O)[nH]c(=O)c12.[Na] [Compound 10, sodium salt of 5-amino-2-(CP (β-D-ribofuranosile)benzo[d]-3H-pyridazine-1,4-dione]
number of electrons participating in the reduction reaction ([1]; calculated with Geirovsky-Ilkovich equation): 4.09
i ([1]; pH 7.0): 0.23 ± 0.03 mkA
−E1/2 ([1]; pH 7.0): 0.092 ± 0.02 V
i ([1]; pH 7.2): 0.30 ± 0.01 mkA
−E1/2 ([1]; pH 7.2): 0.09 ± 0.01 V
i ([1]; pH 7.4): 0.29 ± 0.02 mkA
−E1/2 ([1]; pH 7.4): 0.092 ± 0.02 V
i ([1]; pH 7.6): 0.31 ± 0.02 mkA
−E1/2 ([1]; pH 7.6): 0.09 ± 0.01 V
half-wave potential more positive at reverse stroke compared to forward stroke ([1]; polarograms of reverse stroke): 30.0 mV
MA - fall of optical density of plasma, % to the standard (thrombocytes; 10^−3 M, control 60.8 ± 3.4): 46.2 ± 2.7 %
MA - fall of optical density of plasma, % to the standard (thrombocytes; 10^−4 M, control 60.0 ± 2.1): 48.7 ± 2.4 %
MA - fall of optical density of plasma, % to the standard (thrombocytes; 10^−5 M, control 52.5 ± 2.1): 40.2 ± 4.0 %
MA - drop of optical density, % (thrombocytes; 10^−6 M, control 52.8 ± 1.8): 48.4 ± 2.4%
MA - drop of optical density, % (thrombocytes; 10^−7 M, control 51.5 ± 2.1): 49.8 ± 2.0%

Nc1ncnc2c(=O)n([C@@H]3O[C@H](CO)[C@@H](O)[C@H]3O)[nH]c(=O)c12.[Na] [Compound 31, sodium salt of 4-amino-7-(β-D-ribofuranosile)pyrimido[4,5-d]-6H-pyridazine-5,8-dione]
MA - fall of optical density of plasma, % to the standard (thrombocytes; 10^−3 M, control 60.8 ± 3.4): 44.9 ± 2.3 %
MA - fall of optical density of plasma, % to the standard (thrombocytes; 10^−4 M, control 60.0 ± 2.1): 46.7 ± 2.2 %
MA - fall of optical density of plasma, % to the standard (thrombocytes; 10^−5 M, control 52.5 ± 2.1): 39.9 ± 2.1 %
MA - drop of optical density, % (thrombocytes; 10^−6 M, control 52.8 ± 1.8): 47.5 ± 1.7 %
MA - drop of optical density, % (thrombocytes; 10^−7 M, control 51.5 ± 2.1): 49.5 ± 1.2%

CN1CC[C@]23c4c5ccc(O)c4O[C@H]2[C@@H](O)C=C[C@H]3[C@H]1C5 [Morphine, morphine, reference compound]
total NOC activity in the liver compared to the control [2]: did not change
activity of the calcium-independent form NOC in the liver [3]: decrease of activity
activity of the calcium-dependent form NOC in the liver [4]: rise of activity
Thymus mass [5]: 145 ± 9 mg

CC[C@@]1([C@@H]2O[C@@H]([C@H]3O[C@@](O)(CO)[C@H](C)C[C@@H]3C)C[C@@H]2C)CC[C@H]([C@]2(C)CC[C@]3(C[C@H](O)[C@@H](C)[C@@H]([C@@H](C)[C@@H](OC)[C@H](C)C(=O)O)O3)O2)O1 [monensine, reference compound]
rise of pHi [6]: 0.12 pH unit
increase of pHi [7]: 0.2 unit
